The values below are quoted from earlier work in US20110196036A1, “USE OF BETAINE” (DANISCO A/S, priority 2008, published 2011).

The conditions of the series: pure form; water and lower alcohols.

On to `C[N+](C)(C)CC(=O)[O-]` [betaine, trimethylglycine], for which the solubility entry is “readily soluble in water and lower alcohols”.
